In brackets after ≈: the same amount, converted by molar mass.
How the values were obtained:
[1] = test system: Klebsiella pneumoniae KA14; assay: Disc-plate MIC; conditions: Disc-Plate Method
Salmonella typhosa [2] = assay: Agar-dilution MIC; conditions: Salmonella enterica
Mycoplasma gallisepticum = assay: Activity in chicks infected with Mycoplasma gallisepticum; type: in vivo, chickens
Method: The antibiotic factor was prepared in polyethylene glycol 200 and injected subcutaneously in the neck.

[3] = test system: Bacteriodes fragilis ssp. thetaotamicron; assay: MIC, anaerobic bacteria; type: cell-based
[4] = test system: anthracnose (Colletotrichum lagenarium); type: in vivo; conditions: 400 ppm
Source text: In yet another aspect of the invention, the A-2315 antibiotics are useful as plant-fungicidal agents.

Fusobacterium nucleatum = assay: MIC, anaerobic bacteria; type: cell-based
Mycobacterium avium = assay: Disc-plate MIC; conditions: Disc-Plate Method
[5] = Growth performance of growing chicks; type: in vivo; conditions: 45.4 grams/ton in diet
Method: Still another useful property of the A-2315 antibiotics is their ability to improve growth performance in animals. For example, when A-2315 factor A was added to the diet of growing chicks at a level of 45.4 grams/ton, the average weight gain after 10 days was 159 grams, as compared with an average weight gain of 148 grams for the control group. The feed-conversion efficiency (feed/gain) for chickens fed antibiotic A-2315 factor A was 1.44; in contrast, the feed-conversion efficiency for the control group was 1.53.

[6] = test system: Peptostreptococcus intermedius; assay: MIC, anaerobic bacteria; type: cell-based
[7] = test system: Staphylococcus aureus 3055; assay: Agar-dilution MIC; type: cell-based; conditions: Agar-Dilution Method, benzylpenicillin-susceptible
Salmonella typhimurium = assay: Agar-dilution MIC; type: cell-based; conditions: Salmonella enterica, Agar-Dilution Method
Sarcina lutea = assay: Disc-plate MIC; conditions: Disc-Plate Method
[8] = test system: Bacteriodes fragilis ssp. vulgates; assay: MIC, anaerobic bacteria; type: cell-based
Clostridium inocuum = assay: MIC, anaerobic bacteria; type: cell-based
Shigella flexneri = assay: Disc-plate MIC; type: cell-based; conditions: Disc-Plate Method
Clostridium ramosum = assay: MIC, anaerobic bacteria; type: cell-based; conditions: Thomasclavelia ramosa
Eubacterium aerofaciens = assay: MIC, anaerobic bacteria; type: cell-based; conditions: Collinsella aerofaciens
Electrometric titration = type: physicochemical; conditions: 66 percent dimethylformamide in water
Method: Antibiotic A-2315 factor A is a white, amorphous solid, having a molecular weight of 503.2638, as determined by mass spectrometry, and an elemental analysis as follows: 61.51 percent carbon, 7.51 percent hydrogen, 8.69 percent nitrogen, and 21.53 percent oxygen. […] The specific rotation of A-2315 factor A is -132° when determined at a temperature of 27°C. in methanol in which the concentration of the antibiotic is 0.375 percent on a weight per volume basis.
Antibiotic A-2315 factor B is a white, amorphous solid, having a molecular weight of 501, as determined by mass spectrometry, and an elemental analysis as follows: 61.81 percent carbon, 7.02 percent hydrogen, 8.81 percent nitrogen, and 21.42 percent oxygen.
Antibiotic A-2315 factor C is a white, amorphous solid, having a molecular weight of 487, as determined by mass spectrometry, and an elemental analysis as follows: 61.04 percent carbon, 7.00 percent hydrogen, 7.96 percent nitrogen, and 22.61 percent oxygen. Based on elemental analysis and molecular weight, an empirical formula of C25 H33 N3 O7 is assigned to factor C.

Ruminal VFA = assay: Ruminal volatile fatty acids in vivo in fistulated lambs; set-up: species or system sheep; conditions: 17 days
Method: Further evidence of the ability of the A-2315 antibiotics to increase feed-utilization efficiency is provided by an in vivo test of A-2315 factor A in sheep, using a procedure as follows:
Two groups of fistulated lambs are allowed slightly more than their normal feed ration for 17 days. Test compound is administered to one group in the feed on a g/ton basis.
The rumen fluids of both groups of animals are sampled on days 3, 7, 10, 14 and 17 of the treatment period.
The fermentation of the ruminal samples is halted by addition of meta-phosphoric acid. Each sample is diluted, centrifuged at 2000 × gravity for 10 minutes; the supernatants are analyzed for volatile fatty acids via the gas chromatographic method of E. S. Erwin, G. J. Marco and E. M. Emery in J. Dairy Sci., 44, 1768 (1966). Molar percentages of ruminal volatile fatty acids are calculated, and the effect is measured as a comparison of the molar percentages of propionic acid in treated animals to those in contemporary controls.

Salmonella typhosa [9] = assay: Disc-plate MIC; conditions: Disc-Plate Method
[10] = test system: Staphylococcus aureus 3074; assay: Disc-plate MIC; conditions: Disc-Plate Method; benzylpenicillin-resistant, methicillin-resistant
[11] = test system: cariogenic Streptococcus sp.; assay: Artificial plaque glass rod test; type: cell-based; conditions: 0.1% solution, contact with plaque-encrusted rods as little as 5 minutes
Method: Narrow glass rods, which extend below the surface of the nutrient broth, are inserted into the tubes. After incubation at 37°C. overnight, a layer of artificial plaque (primarily cells and dextran) forms on the surface of the rods. The rods are then transferred to solutions containing varying concentrations of test compound and are allowed to remain in contact with these solutions for periods of 5, 10, and 15 minutes. After the appropriate time has elapsed, the rods are rinsed by dipping in sterile, deionized water; the rods are then incubated overnight at 37°C. in uninoculated medium containing sucrose and bromothymol blue. Growth is detected by observing the color change of bromothymol blue from green to yellow, due to acid production by the organisms when grown in a sucrose-containing medium.

[12] = 3 mg./chick, subcutaneous, at 14 Days, infected controls 7/7
[13] = surviving infected chickens, subcutaneous

CC1=CC(O)CC(O)Cc2nc(co2)C(=O)NC(C)C(=O)OC(C(C)C)C(C)C=CC(=O)NCC=C1 (centres unmarked) [Factor A]
MIC [1]: 50.0 μg/disc | MIC (Salmonella typhosa [2]): > 100 µg/mL | No. Died / No. in Group (Mycoplasma gallisepticum; 3 mg./chick, subcutaneous in neck, infected): 12/20 | Dead Chicks: Air-Sac Lesions (Mycoplasma gallisepticum; 3 mg./chick, subcutaneous, 3/9 not examined due to decomposition): 9/9 | Survivors: Air-Sac Lesions (Mycoplasma gallisepticum; [12]): 0/8 | Survivors: MG Antibody (Mycoplasma gallisepticum; [12]): 8/8 | Survivors: Average Weight (Mycoplasma gallisepticum; 3 mg./chick, subcutaneous, at 14 Days, infected controls 100 gm., normal controls 214 gm.): 133 gm. | signs of toxicity (Mycoplasma gallisepticum; infected chickens, in polyethylene glycol 200, subcutaneous in the neck): No signs of toxicity were seen, except for slight hemorrhage in the neck area in some of the treated chicks that died early | incidence of air-sac lesions (Mycoplasma gallisepticum; [13]): lowered incidence of air-sac lesions | weight advantage (Mycoplasma gallisepticum; [13]): some weight advantage | MIC [3]: 128 µg/mL (≈ 254 µM) | protection of cucumber plants [4]: moderate protection | phytotoxicity ([4]; cucumber plants): Only slight phytotoxicity | solubility in organic solvents (Solubility): soluble | solubility in water (Solubility): only slightly soluble | MIC (Fusobacterium nucleatum): 128 µg/mL (≈ 254 µM) | MIC (Mycobacterium avium): 3.13 μg/disc | average weight gain ([5]; after 10 days, control 148 grams): 159 grams | feed-conversion efficiency (feed/gain) ([5]; control 1.53): 1.44 | MIC [6]: 8 µg/mL (≈ 15.9 µM) | MIC [7]: 6.25 µg/mL (≈ 12.4 µM) | MIC (Salmonella typhimurium): > 100 µg/mL | MIC (Sarcina lutea): 0.008 μg/disc | MIC [8]: 64 µg/mL (≈ 127 µM) | MIC (Clostridium inocuum): 32 µg/mL (≈ 63.5 µM) | MIC (Shigella flexneri): 1.56 μg/disc | MIC (Clostridium ramosum): 8 µg/mL (≈ 15.9 µM) | MIC (Eubacterium aerofaciens): 16 µg/mL (≈ 31.8 µM) | titratable groups (Electrometric titration): did not indicate the presence of titratable groups | % Increase Over Control (propionic acid) (Ruminal VFA; 15g/ton in feed): 4.8% | % Increase over Control (butyric acid) (Ruminal VFA; 15g/ton in feed): 2.4% | Increase Relative to Control (butyric acid) (Ruminal VFA; 15g/ton in feed): 21.6% | Increase Relative to Control (propionic acid) (Ruminal VFA; 15g/ton in feed): 18.2% | % Butyric Acid Conc. (Ruminal VFA; 15 g/ton in feed, control 11.1): 13.5% | % Propionic Acid Conc. (Ruminal VFA; 15g/ton in feed, control 26.2): 31.0% | MIC (Salmonella typhosa [9]): 12.5 μg/disc | MIC [10]: 0.4 μg/disc | effect on cariogenic organism in artificial plaque [11]: effective
